Reference: US12257282B2, “Mixtures and formulations” (CAMURUS AB, priority 2016, dated 2025)
Numbered stars: 1 amine (or outer) side, 2 acyl side, 3 side chain; on linkers, the order of the positions; unused ones are H or OH. Square brackets hold non-standard residues; d marks the D form. Side chains are listed from the residue outwards. Peptide text beside a SMILES is read from it. * marks the point of attachment. Ethylenediamine = C(CN[*:2])N[*:1]; Hyp = O=C(O)[C@@H]1C[C@@H](O)CN1; Phg = N[C@H](C(=O)O)c1ccccc1; CO = O=C([*:1])[*:2]; Bn = c1ccc(C*)cc1

What was measured:
[1] = Octreotide stability in lipid formulations (assay by gradient HPLC-UV after storage); details: for effect on octreotide stability compared to the reference formulation (FIG. 7): alkylamine used to solubilize 100 ppm EDTA, alkylamine:EDTA 4:1; for effect on octreotide stability compared to the reference formulation (FIG. 7) / effect on OCT(Cl) stability vs. the reference formulation (FIG. 6): up to two months; for effect on OCT(Cl) stability vs. the reference formulation (FIG. 6): additive mixtures in EtOH/PG filtered to remove non-dissolved particles, 5 ppm Fe3+
[2] = 0.38 wt % EDTA in EtOH/PG (1/1 wt/wt)
[3] = DTPA solubility in EtOH/PG as a function of ETA/DTPA molar ratio; assay type: physicochemical
[4] = single subcutaneous dose, human plasma; cited from earlier work
[5] = cited from earlier work
SSTR1-SSTRS = details: cited from earlier work
[6] = 2.00 wt % SOM(Cl) in SPC/GDO/EtOH/PG; 100 ppm EDTA with ETA; 40° C./75% RH and 25° C./60% RH, up to three months
[7] = placebo SPC/GDO 50/50 and 35/65 with EtOH; 100 ppm EDTA; with or without 5 ppm Fe3+; 60° C./ambient RH and 40° C./75% RH
Experimental: Oxygen concentration in the vial headspace was measured using a PC-controlled PreSens Microx TX3 micro fiber optic oxygen transmitter equipped with a needle-type optical oxygen microsensor (NTH, 140 μm flat broken tip). Measurements were performed by penetrating the oxygen microsensor through the vial rubber stopper into the vial headspace and measuring the oxygen concentration until a stable readout was obtained (about 1 min).
Some formulations also contained 5 ppm Fe^3+ to enhance the oxidative stress conditions (Table 10).

## OCCNCCO [DiETA, Diethanolamine]
[1]; 40° C./75% RH
  effect on octreotide stability compared to the reference formulation (FIG. 7): enhanced the peptide stability to a similar high degree

## NC(CO)CO [serinol]
[2]
  required minimum amount of alkylamine needed to solubilize EDTA: about 4 mol per 1 mol of EDTA

## NCCO [ETA, Ethanolamine]
[1]; 40° C./75% RH
  effect on octreotide stability compared to the reference formulation (FIG. 7): enhanced the peptide stability to a similar high degree

## O=C(O)CN(CCN(CC(=O)O)CC(=O)O)CCN(CC(=O)O)CC(=O)O [DTPA, Diethylenetriaminepentaacetic (pentetic) acid]
[3]; 0.08 wt % DTPA
  DTPA solubility in EtOH/PG without using ETA: not soluble
[3]; 0.08 wt % DTPA in EtOH/PG (50/50 w/w)
  required minimum amount of ETA needed to solubilize DTPA: about 4.3 mol of ETA per 1 mol of DTPA

## O.O.O=C(O)CN(CCN(CC(=O)O)CC(=O)O)CC(=O)O.[Na].[Na] [EDTA(Na), Ethylenediaminetetraacetic acid disodium dihydrate]
[1]; 40° C./75% RH
  effect on OCT(Cl) stability vs. the reference formulation (FIG. 6): negative effect

## NCCCC[C@@H]1NC(=O)[C@@H](Cc2c[nH]c3ccccc23)NC(=O)[C@H](c2ccccc2)NC(=O)[C@@H]2C[C@@H](OC(=O)NCCN)CN2C(=O)[C@H](Cc2ccccc2)NC(=O)[C@H](Cc2ccc(OCc3ccccc3)cc2)NC1=O [pasireotide] (cyclo([Hyp]([CO-Ethylenediamine])[Phg][dW]KY(Bn)F))
[4]
  initial half-life following the peak: 2 to 3 h

## Ala-Gly-Cys-Lys-Asn-Phe-Phe-Trp-Lys-Thr-Phe-Thr-Ser-Cys [SST-14]
[5]; natural SST-14
  biological half-life: 1-3 minutes
SSTR1-SSTRS; SSTR1-SSTRS
  affinity of the five SSTR types: equally high affinity

## C[C@@H](O)[C@@H]1NC(=O)[C@H](CCCCN)NC(=O)[C@@H](Cc2c[nH]c3ccccc23)NC(=O)[C@H](Cc2ccccc2)NC(=O)[C@@H](NC(=O)[C@H](N)Cc2ccccc2)CSSC[C@@H](C(=O)N[C@H](CO)[C@@H](C)O)NC1=O [Octreotide, D-Phe-Cys-Phe-D-Trp-Lys-Thr-Cys-Thr-ol (2-7 disulphide bridge)]
[5]; in vivo
  terminal half-life: around 1.7 hours
SSTR1-SSTRS
  selectivity for SSTR2 and SSTRS: high selectivity

## O=C(O)CN(CCN(CC(=O)O)CC(=O)O)CC(=O)O [EDTA, Ethylenediaminetetraacetic (edetic) acid]
[6]
  effect on SOM stability (SOM assay, FIG. 9): dramatically enhanced the peptide stability
[1]; 2.27 wt % OCT(Cl) in SPC/GDO/EtOH/PG, 0-750 ppm EDTA with ETA, 40° C./75% RH, 0, 1, 2 months, air headspace
  effect on octreotide stability vs. reference formulation (FIG. 2): dramatically enhanced the peptide stability
[1]; 2.27 wt % OCT(Cl) in SPC/GDO/EtOH/PG, 40° C./75% RH
  EDTA concentration interval of maximum stabilization effect: 50-250 ppm
[1]; 2.34 wt % OCT(Cl) in SPC/GDO/EtOH/PG, 100 ppm EDTA with 100 ppm ETA vs none, […], up to three months, air headspace
  effect on octreotide stability (octreotide assay, FIG. 1): dramatically enhanced the peptide stability
[1]; 100 ppm EDTA with ETA, pre-filled glass syringes, 25° C./60% RH, up to twelve months
  effect on long-term octreotide stability (FIG. 3): significantly enhanced the long-term peptide stability
[1]; 40° C./75% RH
  effect on OCT(Cl) stability vs. the reference formulation (FIG. 6): negative effect
[7]
  effect on consumption of headspace oxygen (lipid oxidation, FIG. 15-18): drastically reduce consumption of oxygen
